A melting point compilation (Tetko et al.; mined from patent text by program, amines drawn as free bases though some values may be those of a salt)

melting point [°C] | SMILES
79 | COc1ccc(CN(CCN(C)CCCCCCNC(=NCCCOc2cccc(CN3CCCCC3)c2)NC#N)c2ccccn2)cc1
169 to 173 | CC(C)(C)Nc1nc(C#N)c(C#N)nc1Cl
210 to 215 | CCOC(=O)C(C)(C)Oc1ccc2c(c1)C=C(c1nccn1C)CO2
> 250 | N=C(N)c1ccc(C(=O)N2CCCC2CC(=O)NCCC(=O)O)cc1 (centres undefined)
98 to 100 | Cc1nc2cccc(S(=O)(=O)n3c(COC(C)(C)C(=O)O)cc4cc(C(F)(F)F)ccc43)c2s1
63 to 64 | COc1ccc(CS[C@@H]2C[C@@H](CNCc3ccccc3)N(S(C)(=O)=O)C2)cc1
146 to 155 | CCCCCCCCNc1c(Nc2ccc(CC(C)NC[C@H](O)COc3ccccc3)cc2)c(=O)c1=O (some centres undefined)
108 | Cc1ccc2oc(OCC(=O)N(c3ccccc3)C(C)C)nc2c1
29 to 30 | COC(=O)c1ccc(F)c(Br)c1
58 to 59 | CCOc1c(C)cnc(CO)c1C
72 | CCCCc1oc2ccccc2c1C(=O)NCc1ccc2c(-c3ccccc3)c(O)ccc2c1
136 to 137 | COc1cc(C(=O)n2ccnc2)cc([N+](=O)[O-])c1OC
202 to 204 | CC(C)(C)OC(=O)N1CCC(NC(=O)c2ccc(-n3cc4ccccc4n3)cc2)CC1
120 | O=C(Nc1ccc(Cl)cc1)Oc1ccc2c(c1)N(Cc1ccccc1)CCC2
195 to 196 | Cc1cc(C(F)(F)C(F)(F)F)ccc1NC(=O)c1cccc(I)c1C(=O)NC(C)C
100 | CC(NC(=O)Cc1cc(F)cc(F)c1)C(=O)NC1C(=O)NC(c2ccncc2)c2ccccc21 (centres undefined)
104 to 106 | O=C(O)CCCCCCCCCCCCCCCCCCCN1C(=O)C=CC1=O
272 to 273 | O=C1CCC2=C1C(c1ccc3nonc3c1)C1=C(CCC1=O)N2
101 to 102 | CCCCCCCCCCCCCCCCCCOc1ccc(OCCCc2ccccc2)c(C(=O)N(CC(=O)O)CC(=O)O)c1
126 to 128 | CCCCc1nn(-c2cc([N+](=O)[O-])ccc2Br)c(=O)n1Cc1ccc(-c2ccccc2S(=O)(=O)NC(C)(C)C)cc1
93 to 95 | CCCCC(Cc1ccc(OCCNC(=O)c2ccc(-c3ccc(C(=O)OC)cc3)cc2)cc1)C(=O)OCC (centres undefined)

melting point [°C] | SMILES
136 to 139 | CCCc1c(OCCCCCCc2ccc(C(=O)CCCC(=O)O)cc2CCC(=O)O)ccc2c1OCCC2=O
165 to 166 | COc1ccc(Oc2ccc([N+](=O)[O-])cc2)c(Cl)c1Cl
88 to 90 | C=C(Cl)Cn1c(C)c(C)c2cnnc(OCc3ccccc3)c21
90 to 92 | COC(=O)C(=CNc1c(-c2ccccc2)csc1C(=O)O)SC
161 to 162 | ClCc1ccc2c(c1)Nc1nccnc1S2
56 to 57 | CCOP(=O)(OCC)C(CCc1cc(C)nc2cc(OC(=O)c3ccccc3)nn12)P(=O)(OCC)OCC
138 to 140 | COCCOC(=O)Nc1cccc(C)c1CNc1cccn2c(CO)c(C)nc12
141 to 143 | CCCCCCCCCCCCCCN(C(=O)CCCCCCCCCCC)C1(N)OC(CO)C(O)C(O)C1C(=O)C(N)C(=O)C(N)CO (centres undefined)
217 | CCOC(=O)c1cnn(C)c1C(=O)Nc1ccc2nc(-c3cccnc3)nn2c1
160 to 163 | CSc1ccc(/C=C/C(=O)/C=C/C(=O)O)cc1
42 to 44 | OCc1ncccc1Cl
119 to 123 | COc1cccc(C=C2OC(=O)c3ccccc32)c1
105 to 107 | CCOC(=O)c1ncn(Cc2ccc(Cl)c(Cl)c2)c1C(=O)OCC
256 to 257 | Nc1cc(C(O)=S)cc(Cc2ccccc2)c1Cc1ccccc1
169 to 171 | COc1ccc(Cn2nc(COC(C)(C)C(=O)O)c3ccccc32)cc1
142 to 144 | OCC1Cn2c(nc3ccccc32)-c2ccccc2O1 (centres undefined)
158 to 161 | CCCc1nc2c(N)nc(Cl)c(C)c2n1CCOCCN
88 | Cc1cc(-n2ccnc2)c2cccc(OCc3c(Cl)ccc(S(=O)(=O)N4CCC[C@H]4C(=O)N(C)C)c3Cl)c2n1
187 to 188 | CC(C)Oc1ccc(-n2c(C(=O)NC(C)(C)C(=O)O)c(Cl)c3cc(Oc4ccc(C(F)(F)F)cc4)ccc32)cc1
151 to 152 | O=C(N[C@H](Cc1cccc(OC(F)(F)C(F)F)c1)[C@@H](O)c1ccc(CO)cc1)c1cccc2c1C=CCCC2 (racemic)
173 to 174 | CC(C)(C)c1ccc(CC[C@H](CC2CCCCC2)O[Si](C)(C)C(C)(C)C)cc1NC(=O)CC1c2ccccc2Oc2ccccc21

melting point [°C] | SMILES
108 to 110 | c1ccc(Cc2c[nH]c3ccccc23)cc1
230 to 232 | CC(=O)NCC(C)(C)c1ccc2nc(-c3ccc(C)cc3)[nH]c2c1
101 to 102 | O=C1C2CCCC2=Nc2ccccc2N1CCc1ccccc1 (centres undefined)
259 to 261 | CC(=O)Oc1c(C)c(C)c2c(c1C)CC(C)(C(=O)Nc1cnc3c(C)cc(C)cc3c1-c1ccccc1Cl)O2 (centres undefined)
169 to 171 | CN(C)c1nc(N(C)C)nc(N(C)Cc2ccccc2O)n1
200 | COc1cc(S(C)(=O)=O)ccc1-n1nc(C(F)(F)F)cc1-c1ccc(-c2ccco2)cc1
173 to 175 | CS(=O)(=O)c1ccc(-c2[nH]c3ccc(Cl)cc3c2-c2ccc(S(C)(=O)=O)cc2)cc1
80 to 81 | CCCCCCCCOC(=O)/C(C#N)=C/C=C/N(C)C
124 | CC(C)(C)c1cc(SCCc2n[nH]c(=S)o2)cc(C(C)(C)C)c1O
180 | COc1ccc(CN(C)CCCc2ccc(NC(=O)c3cccc4c(=O)cc(-c5ccccc5)[nH]c34)cc2)cc1OC
101 to 103 | CCCOc1c(C)cc(Cl)c2c(=O)c3ccccc3sc12
89 | CC(C)(C)c1cc(CC=Cc2ccccc2)c(O)c(C(C)(C)C)c1
176 to 177 | Nc1sc2c(c1C(=O)c1ccc(Cl)cc1)CCC(O)C2 (centres undefined)
238 to 240 | CSc1nc(N)n2nc(-c3ccco3)nc2n1
156 | CCC(=O)Nc1c(Cl)cc(Cl)c(-c2nsc(C(F)(F)F)c2Cl)c1Br
58 to 60 | N#Cc1ccsc1N=Cc1cccs1
148 to 150 | COc1cc2oc(=O)cc(CN3CCC(OC)CC3)c2cc1OC
117 | COCCO[C@@H]1c2ccc3[nH]c(C)nc3c2O[C@H](c2ccccc2)[C@H]1O
158 to 160 | COc1cccc(Nc2ccnc(Nc3cc(NC(C)=O)c(OC)c(OC)c3)n2)c1
44 to 50 | CCCCCCCOC(=O)Oc1ccncc1
70 | CN(C(=O)NC(=O)c1ccccc1)C(=O)Nc1nc(C(Cl)(Cl)Cl)ns1

SMILES | melting point [°C]
NC(CC(=O)O)C1CC=CCC1 (centres undefined) | 208 to 210
CCC(=O)Nc1nc(CN2CCC(c3c[nH]c4ccccc34)CC2)cs1 | 192 to 195
Cc1ccc2nc(NC3=NCCN3)[nH]c2c1 | 264 to 266
CCCCCn1c2ccc(C(=S)N3CCCCC3)cc2c2ccc(OC)cc21 | 116 to 118
COc1ccc2cccc(C(CO)CNC(=O)CF)c2c1 (centres undefined) | 49 to 51
N#Cc1nn(-c2c(Cl)cc(C(F)(F)F)cc2Cl)c(C=O)c1SC(F)(F)F | 90
